Test results reported in publication PMC5218480 (PLoS ONE, 2017).

Tested on: MV-4-11 cells
Assay: Gene expression microarray analysis (Affymetrix PrimeView) and GSEA
Type: cell-based, human
Design: RFU PODN (11730768_x_at) / Fold change /veh PODN (11730768_x_at) / RFU LINC00158 (11744669_a_at) / Fold change /veh LINC00158 (11744669_a_at) / RFU DUSP10 (11751237_a_at) / Fold change /veh DUSP10 (11751237_a_at) / RFU ID3 (11757404_x_at) / Fold change /veh ID3 (11757404_x_at) / RFU PLEKHG5 (11737974_s_at) / Fold change /veh PLEKHG5 (11737974_s_at) / RFU LRRC4B (11730491_at) / Fold change /veh LRRC4B (11730491_at) / RFU GIMAP4 (11747438_a_at) / Fold change /veh GIMAP4 (11747438_a_at) / RFU KRT8 (11758183_x_at) / Fold change /veh KRT8 (11758183_x_at) / RFU CNN1 (11734310_a_at) / Fold change /veh CNN1 (11734310_a_at) / RFU VPS37D (11726825_at) / Fold change /veh VPS37D (11726825_at) / RFU C10orf10 (11716522_x_at) / Fold change /veh C10orf10 (11716522_x_at) / RFU KIR2DL2 /// KIR2DL4 /// KIR2DL5A /// KIR2DL5B /// KIR2DS1 /// KIR2DS2 /// KIR2DS3 /// KIR2DS4 /// KIR3DL3 /// KIR3DL3 /// KIR3DS1 (11738374_at) / Fold change /veh KIR2DL2 /// KIR2DL4 /// KIR2DL5A /// KIR2DL5B /// KIR2DS1 /// KIR2DS2 /// KIR2DS3 /// KIR2DS4 /// KIR3DL3 /// KIR3DL3 /// KIR3DS1 (11738374_at) / RFU C1QL1 (11718748_at) / Fold change /veh C1QL1 (11718748_at) / RFU TMPRSS4 (11747572_a_at) / Fold change /veh TMPRSS4 (11747572_a_at) / RFU HAMP (11756126_x_at) / Fold change /veh HAMP (11756126_x_at) / RFU RNFT2 (11725882_a_at) / Fold change /veh RNFT2 (11725882_a_at) / RFU NR4A2 (11747474_a_at) / Fold change /veh NR4A2 (11747474_a_at) / RFU ABCC12 (11746883_a_at) / Fold change /veh ABCC12 (11746883_a_at) / RFU TMEM136 (11760407_x_at) / Fold change /veh TMEM136 (11760407_x_at) / RFU CLDN22 /// WWC2 (11732394_at) / Fold change /veh CLDN22 /// WWC2 (11732394_at) / RFU HLA-DPB1 (11760878_x_at) / Fold change /veh HLA-DPB1 (11760878_x_at) / RFU SPINT1 (11716480_a_at) / Fold change /veh SPINT1 (11716480_a_at) / RFU GAP43 (11754022_s_at) / Fold change /veh GAP43 (11754022_s_at) / RFU A4GNT (11735810_at) / Fold change /veh A4GNT (11735810_at) / RFU PRB3 (11715151_x_at) / Fold change /veh PRB3 (11715151_x_at) / RFU TUBB4B (11761932_at) / Fold change /veh TUBB4B (11761932_at) / RFU CAPN14 (11732068_a_at) / Fold change /veh CAPN14 (11732068_a_at) / RFU TMCC2 (11721928_a_at) / Fold change /veh TMCC2 (11721928_a_at) / RFU IRGQ (11745062_a_at) / Fold change /veh IRGQ (11745062_a_at) / RFU FAM174B (11720279_a_at) / Fold change /veh FAM174B (11720279_a_at) / RFU TMPRSS4 (11748680_a_at) / Fold change /veh TMPRSS4 (11748680_a_at) / RFU FAM212B (11763350_a_at) / Fold change /veh FAM212B (11763350_a_at) / RFU PLEKHG5 (11743358_a_at) / Fold change /veh PLEKHG5 (11743358_a_at) / RFU ZSCAN30 (11745921_a_at) / Fold change /veh ZSCAN30 (11745921_a_at) / RFU CMKLR1 (11741424_a_at) / Fold change /veh CMKLR1 (11741424_a_at) / RFU LOC101060620 /// MAPK8IP1 (11723275_at) / Fold change /veh LOC101060620 /// MAPK8IP1 (11723275_at) / RFU SPTSSB (11747773_x_at) / Fold change /veh SPTSSB (11747773_x_at) / RFU PRSS12 (11739890_at) / Fold change /veh PRSS12 (11739890_at) / RFU BIN1 (11741810_x_at) / Fold change /veh BIN1 (11741810_x_at) / RFU WNT11 (11732464_a_at) / Fold change /veh WNT11 (11732464_a_at) / RFU C10orf10 (11716521_a_at) / Fold change /veh C10orf10 (11716521_a_at) / RFU C5orf56 (11738089_at) / Fold change /veh C5orf56 (11738089_at) / RFU CYB561 (11721691_x_at) / Fold change /veh CYB561 (11721691_x_at) / RFU ANKRD19P (11752326_a_at) / Fold change /veh ANKRD19P (11752326_a_at) / RFU OR2T12 /// OR2T33 /// OR2T8 (11738714_s_at) / Fold change /veh OR2T12 /// OR2T33 /// OR2T8 (11738714_s_at) / RFU VCAN (11748164_a_at) / Fold change /veh VCAN (11748164_a_at) / RFU JSRP1 (11732532_at) / Fold change /veh JSRP1 (11732532_at) / RFU KRTAP10-11 (11738290_x_at) / Fold change /veh KRTAP10-11 (11738290_x_at) / RFU MYO3A (11730013_a_at) / Fold change /veh MYO3A (11730013_a_at) / RFU EBF3 (11725865_a_at) / Fold change /veh EBF3 (11725865_a_at) / RFU CAMK2N1 (11719241_x_at) / Fold change /veh CAMK2N1 (11719241_x_at) / RFU C5orf56 (11738088_a_at) / Fold change /veh C5orf56 (11738088_a_at) / RFU OLFML3 (11715873_a_at) / Fold change /veh OLFML3 (11715873_a_at) / RFU LOC100653217 /// NTM (11731650_a_at) / Fold change /veh LOC100653217 /// NTM (11731650_a_at) / RFU MAPK11 (11762145_a_at) / Fold change /veh MAPK11 (11762145_a_at) / RFU FIZ1 (11724087_x_at) / Fold change /veh FIZ1 (11724087_x_at) / RFU OASL (11726364_x_at) / Fold change /veh OASL (11726364_x_at) / RFU SOX15 (11748057_x_at) / Fold change /veh SOX15 (11748057_x_at) / RFU CD79A (11719716_a_at) / Fold change /veh CD79A (11719716_a_at) / RFU HIST1H1D (11736915_at) / Fold change /veh HIST1H1D (11736915_at) / RFU CASKIN2 (11723855_a_at) / Fold change /veh CASKIN2 (11723855_a_at) / RFU LOC730098 (11760151_x_at) / Fold change /veh LOC730098 (11760151_x_at) / RFU OR4N2 (11742367_at) / Fold change /veh OR4N2 (11742367_at) / RFU PRRT2 (11749266_a_at) / Fold change /veh PRRT2 (11749266_a_at) / RFU SNX32 (11753110_a_at) / Fold change /veh SNX32 (11753110_a_at) / RFU CDHR5 (11726645_a_at) / Fold change /veh CDHR5 (11726645_a_at) / RFU RCAN1 (11760418_a_at) / Fold change /veh RCAN1 (11760418_a_at) / RFU FAM167A (11723789_a_at) / Fold change /veh FAM167A (11723789_a_at) / RFU FAM26E (11764081_at) / Fold change /veh FAM26E (11764081_at) / RFU ISYNA1 (11749810_s_at) / Fold change /veh ISYNA1 (11749810_s_at) / RFU ACY1 (11761880_at) / Fold change /veh ACY1 (11761880_at) / RFU 11764098_at / Fold change /veh 11764098_at / RFU SAMD14 (11745864_x_at) / Fold change /veh SAMD14 (11745864_x_at) / RFU NPB (11741838_a_at) / Fold change /veh NPB (11741838_a_at) / RFU TMPRSS6 (11731388_a_at) / Fold change /veh TMPRSS6 (11731388_a_at) / RFU KRTAP10-2 (11738614_at) / Fold change /veh KRTAP10-2 (11738614_at) / RFU ARHGAP8 /// PRR5-ARHGAP8 (11727945_x_at) / Fold change /veh ARHGAP8 /// PRR5-ARHGAP8 (11727945_x_at) / RFU KRTAP5-7 /// NADSYN1 (11734609_at) / Fold change /veh KRTAP5-7 /// NADSYN1 (11734609_at) / RFU RASL12 (11751679_a_at) / Fold change /veh RASL12 (11751679_a_at) / RFU CDKN2B (11736163_a_at) / Fold change /veh CDKN2B (11736163_a_at) / RFU PRF1 (11729649_at) / Fold change /veh PRF1 (11729649_at) / RFU, ZNF638 /// ZNF638-IT1 / Fold change vs veh, ZNF638 /// ZNF638-IT1 / RFU, PANK3 / Fold change vs veh, PANK3 / RFU, SH3YL1 / Fold change vs veh, SH3YL1 / RFU, ZEB2 / Fold change vs veh, ZEB2 / RFU, NRIP1 / Fold change vs veh, NRIP1 / RFU, PTTG1IP / Fold change vs veh, PTTG1IP / RFU, CAPN2 / Fold change vs veh, CAPN2 / RFU, MED14 / Fold change vs veh, MED14 / RFU, SNORA58 / Fold change vs veh, SNORA58 / RFU, C1orf63 / Fold change vs veh, C1orf63 / RFU, LRRFIP1 / Fold change vs veh, LRRFIP1 / RFU, NDUFAF7 / Fold change vs veh, NDUFAF7 / RFU, SLC12A2 / Fold change vs veh, SLC12A2 / RFU, IBTK / Fold change vs veh, IBTK / RFU, ESF1 / Fold change vs veh, ESF1 / Fold change vs veh, TMEM50B / RFU, TAOK1 / Fold change vs veh, TAOK1 / RFU, ACBD3 / Fold change vs veh, ACBD3 / RFU, TMA16 / Fold change vs veh, TMA16 / RFU, RWDD3 / Fold change vs veh, RWDD3 / RFU, BCAT1 / Fold change vs veh, BCAT1 / RFU, EDEM3 / Fold change vs veh, EDEM3 / RFU, TMEM33 / Fold change vs veh, TMEM33 / RFU, WDR75 / Fold change vs veh, WDR75 / RFU, AHCTF1 / Fold change vs veh, AHCTF1 / RFU, TFRC / Fold change vs veh, TFRC / RFU, ZDHHC17 / Fold change vs veh, ZDHHC17 / RFU, NOM1 / Fold change vs veh, NOM1 / RFU, ARL8B / Fold change vs veh, ARL8B / RFU, ZBTB11 / Fold change vs veh, ZBTB11 / RFU, TAMM41 / Fold change vs veh, TAMM41 / RFU, KIAA1704 /// LOC100996395 / Fold change vs veh, KIAA1704 /// LOC100996395 / RFU, ING1 / Fold change vs veh, ING1 / RFU, TRMT61B / Fold change vs veh, TRMT61B / RFU, FUBP3 / Fold change vs veh, FUBP3 / RFU, TP53 / Fold change vs veh, TP53 / RFU, TNKS2 / Fold change vs veh, TNKS2 / RFU, ZFP14 / Fold change vs veh, ZFP14 / RFU, ACTR2 / Fold change vs veh, ACTR2 / RFU, PPP3R1 / Fold change vs veh, PPP3R1 / RFU, PIK3R1 / Fold change vs veh, PIK3R1 / RFU, HNRNPA1 / Fold change vs veh, HNRNPA1 / RFU, RNF170 / Fold change vs veh, RNF170 / RFU, ZNF28 / Fold change vs veh, ZNF28 / RFU, RNGTT / Fold change vs veh, RNGTT / RFU, OGT / Fold change vs veh, OGT / RFU, BRD1 / Fold change vs veh, BRD1 / RFU, MARS / Fold change vs veh, MARS / RFU, ZNF655 / Fold change vs veh, ZNF655 / RFU, FAHD1 / Fold change vs veh, FAHD1 / RFU, BDP1 / Fold change vs veh, BDP1 / RFU, LRRCC1 / Fold change vs veh, LRRCC1 / RFU, ARID1A / Fold change vs veh, ARID1A / RFU, ZNF146 / Fold change vs veh, ZNF146 / RFU, ZNF330 / Fold change vs veh, ZNF330 / RFU, GPN3 / Fold change vs veh, GPN3 / RFU, C9orf123 / Fold change vs veh, C9orf123 / RFU, N4BP2L2 / Fold change vs veh, N4BP2L2 / RFU, ARFIP1 / Fold change vs veh, ARFIP1 / RFU, FAM179B / Fold change vs veh, FAM179B / RFU, BCL10 / Fold change vs veh, BCL10 / RFU, UHRF1BP1L / Fold change vs veh, UHRF1BP1L / RFU, BET1 / Fold change vs veh, BET1 / RFU, CNOT2 / Fold change vs veh, CNOT2 / RFU, ZNF268 / Fold change vs veh, ZNF268 / Fold change vs veh, ZNF507 / RFU, DGCR2 / Fold change vs veh, DGCR2 / RFU, WDSUB1 / Fold change vs veh, WDSUB1 / Fold change vs veh, HSP90B1 /// MIR3652 / RFU, ADSS / Fold change vs veh, ADSS / RFU, GK / Fold change vs veh, GK / RFU, ZNF148 / Fold change vs veh, ZNF148 / RFU, TAF9 / Fold change vs veh, TAF9 / RFU, SLC1A5 / Fold change vs veh, SLC1A5 / RFU, SLMO2 / Fold change vs veh, SLMO2 / RFU, ABCC4 / Fold change vs veh, ABCC4 / RFU, LOC101060439 /// RAP1B / Fold change vs veh, LOC101060439 /// RAP1B / RFU, RFX7 / Fold change vs veh, RFX7 / RFU, GTPBP10 / Fold change vs veh, GTPBP10 / RFU, CNEP1R1 / Fold change vs veh, CNEP1R1 / RFU, BIVM-ERCC5 /// ERCC5 / Fold change vs veh, BIVM-ERCC5 /// ERCC5 / RFU, ILF3 / Fold change vs veh, ILF3 / RFU 11762660_at / Fold change /veh 11762660_at / RFU VCAN (11757783_s_at) / Fold change /veh VCAN (11757783_s_at) / RFU DDX43 (11728927_at) / Fold change /veh DDX43 (11728927_at) / RFU KRT8 (11758188_x_at) / Fold change /veh KRT8 (11758188_x_at) / RFU NKD1 (11759106_at) / Fold change /veh NKD1 (11759106_at) / RFU SRD5A1 (11742802_a_at) / Fold change /veh SRD5A1 (11742802_a_at) / RFU TPSAB1 /// TPSB2 (11721975_s_at) / Fold change /veh TPSAB1 /// TPSB2 (11721975_s_at) / RFU GSTM3 (11746129_a_at) / Fold change /veh GSTM3 (11746129_a_at) / RFU IL23R (11737362_x_at) / Fold change /veh IL23R (11737362_x_at) / RFU TMEM51 (11727254_a_at) / Fold change /veh TMEM51 (11727254_a_at) / RFU PIWIL2 (11732686_x_at) / Fold change /veh PIWIL2 (11732686_x_at) / RFU ORM1 (11744905_x_at) / Fold change /veh ORM1 (11744905_x_at) / RFU CCDC152 (11743942_at) / Fold change /veh CCDC152 (11743942_at) / RFU ECM1 (11717891_a_at) / Fold change /veh ECM1 (11717891_a_at) / RFU IL23R (11748794_a_at) / Fold change /veh IL23R (11748794_a_at) / RFU TNFAIP8L3 (11732012_x_at) / Fold change /veh TNFAIP8L3 (11732012_x_at) / RFU MBOAT4 (11741988_at) / Fold change /veh MBOAT4 (11741988_at) / RFU 11764193_at / Fold change /veh 11764193_at / RFU TMEM53 (11763286_at) / Fold change /veh TMEM53 (11763286_at) / RFU MAGEB2 (11727129_at) / Fold change /veh MAGEB2 (11727129_at) / RFU TMEM200A (11744735_a_at) / Fold change /veh TMEM200A (11744735_a_at) / RFU CCDC152 (11751479_a_at) / Fold change /veh CCDC152 (11751479_a_at) / RFU FAM211A (11726209_a_at) / Fold change /veh FAM211A (11726209_a_at) / RFU RGS16 (11746705_a_at) / Fold change /veh RGS16 (11746705_a_at) / RFU VCAN (11755009_s_at) / Fold change /veh VCAN (11755009_s_at) / RFU RHOB (11743442_s_at) / Fold change /veh RHOB (11743442_s_at) / RFU RGS16 (11720943_a_at) / Fold change /veh RGS16 (11720943_a_at) / RFU RGS16 (11720944_at) / Fold change /veh RGS16 (11720944_at) / RFU, VPS4B / Fold change vs veh, VPS4B / RFU, CREB1 / Fold change vs veh, CREB1 / RFU, DNAJC13 / Fold change vs veh, DNAJC13 / RFU, GNAQ / Fold change vs veh, GNAQ / RFU, CDK5R1 / Fold change vs veh, CDK5R1 / RFU, ZRANB3 / Fold change vs veh, ZRANB3 / RFU, CUL4A / Fold change vs veh, CUL4A / RFU, CCNY / Fold change vs veh, CCNY / RFU, UFL1 / Fold change vs veh, UFL1 / RFU, COG3 / Fold change vs veh, COG3 / RFU, DIAPH2 / Fold change vs veh, DIAPH2 / RFU, SKA2 / Fold change vs veh, SKA2 / RFU, AFF3 / Fold change vs veh, AFF3 / RFU, LMF1 / Fold change vs veh, LMF1 / RFU, IPO11 / Fold change vs veh, IPO11 / RFU, DFFB / Fold change vs veh, DFFB / RFU, FOXP1 / Fold change vs veh, FOXP1 / RFU, CARD8 / Fold change vs veh, CARD8 / RFU, STRN3 / Fold change vs veh, STRN3 / RFU, ADK / Fold change vs veh, ADK / RFU, RASSF2 / Fold change vs veh, RASSF2 / RFU, WIPF1 / Fold change vs veh, WIPF1 / RFU, LARP1B / Fold change vs veh, LARP1B / RFU, RASA1 / Fold change vs veh, RASA1 / RFU, RB1 / Fold change vs veh, RB1 / RFU, PPFIA1 / Fold change vs veh, PPFIA1 / RFU, MAT2A / Fold change vs veh, MAT2A / RFU, CCT5 / Fold change vs veh, CCT5 / RFU, WDR92 / Fold change vs veh, WDR92 / RFU, CUX1 / Fold change vs veh, CUX1 / RFU, TTC7A / Fold change vs veh, TTC7A / RFU, TMEM135 / Fold change vs veh, TMEM135 / RFU, DEPTOR / Fold change vs veh, DEPTOR / RFU, CPM / Fold change vs veh, CPM / RFU, DNAJB6 / Fold change vs veh, DNAJB6 / RFU, CACNA2D3 / Fold change vs veh, CACNA2D3 / RFU, DTX4 / Fold change vs veh, DTX4 / RFU, TFCP2 / Fold change vs veh, TFCP2 / RFU, GMCL1 /// GMCL1P1 / Fold change vs veh, GMCL1 /// GMCL1P1 / RFU, AEBP2 / Fold change vs veh, AEBP2 / RFU, SNHG1 /// SNORD22 /// SNORD25 /// SNORD26 /// SNORD27 /// SNORD28 /// SNORD29 /// SNORD31 / Fold change vs veh, SNHG1 /// SNORD22 /// SNORD25 /// SNORD26 /// SNORD27 /// SNORD28 /// SNORD29 /// SNORD31 / Fold change (Aza/veh), C12orf56 (ProbeSet 11735607_a_at) / Fold change (ACY-1035/veh), C12orf56 (ProbeSet 11735607_a_at) / Fold change (Aza/veh), FGFR1OP (ProbeSet 11751329_s_at) / Fold change (ACY-1035/veh), FGFR1OP (ProbeSet 11751329_s_at) / Fold change (Aza/veh), VPS36 (ProbeSet 11739960_a_at) / Fold change (ACY-1035/veh), VPS36 (ProbeSet 11739960_a_at) / RFU SYPL1 (11715823_x_at) / Fold change /veh SYPL1 (11715823_x_at) / RFU IGFBP7 (11715501_s_at) / Fold change /veh IGFBP7 (11715501_s_at) / RFU REEP3 (11722064_at) / Fold change /veh REEP3 (11722064_at) / RFU IGLL1 (11728026_x_at) / Fold change /veh IGLL1 (11728026_x_at): dose or concentration left out as unconfirmed
Conditions: ProbeSet 11720154_at; LIST B

## Nc1ccc(-c2cccs2)cc1NC(=O)c1ccc2c(c1)cc(C1CC1)n2CCN1CCOCC1 [ACY-1035]
  Fold change vs veh, NRIP1: 0.88
